Data on 24 molecules can be found in patent US20210246115A1 (Bioimics AB, priority 2017, published 2021).

Each structure is given as a SMILES string. ≈ marks a conversion by molar mass, not a printed value. Where a name gives a salt, the structure may show the parent alone.

Test [1] has as its system Escherichia coli (ATCC25922). Description: MIC, broth microdilution (CLSI), Escherichia coli. The following applies: Escherichia coli, ATCC25922, read-out: E. coli ATCC 25922 MIC, Table XIII.
Test [2] deals with E. coli RNase P RNA, M1 RNA. The experiment in a line: Inhibition of bacterial RNase P activity, IC50 determination (cleavage of pATSerUG by M1 RNA). In kind it is biochemical. The following applies: NI: No inhibition.
In test [3] the test system is Staphylococcus aureus (ATCC25923). Description: MIC, broth microdilution (CLSI), Staphylococcus aureus ATCC25923. The note with it: Staphylococcus aureus, ATCC25923, read-out: S. aureus ATCC 25923 MIC.

In general, MIC refers to the lowest concentration found to suppress growth. The term IC50 denotes the concentration at which inhibition is half-maximal.

As to `Cc1cccc(C(CC(=O)N2CCC(CCN)CC2)c2cn(CC3CCCCC3)c3ccccc23)c1.Cl` (stereo not drawn) [Compound 181, 1-(4-(2-aminoethyl)piperidin-1-yl)-3-(1-(cyclohexylmethyl)-1H-indol-3-yl)-3-(m-tolyl)propan-1-one hydrochloride salt], the minimal inhibitory concentration (MIC) in test [1] amounted to 134 µg/mL; in test [3], 17 µg/mL. Also, the IC50 in test [2] was 11 µM.

With `FC1(F)CCC(Cn2cc(CCCNC3CCNCC3)c3cc(Br)ccc32)CC1` [Compound 295, N-(3-(5-bromo-1-((4,4-difluorocyclohexyl)methyl)-1H-indol-3-yl)propyl)piperidin-4-amine hydrochloride salt], the values for the MIC in test [1] and in test [3] were 17 µg/mL and 9 µg/mL, respectively. The molecule further displayed an IC50 in test [2] of 50 µM.

`COc1ccc2c(c1)c(C(CC(=O)NC1CCC(N)CC1)c1cccc(C)c1)cn2CC1CCCCC1.Cl` [Compound 151, N-((1S,4S)-4-aminocyclohexyl)-3-(1-(cyclohexylmethyl)-5-methoxy-1H-indol-3-yl)-3-(m-tolyl)propanamide hydrochloride salt]: the MIC in test [1] is 128 µg/mL; in test [3], 16 µg/mL. The molecule further came in with an IC50 in test [2] of 45 µM.

For the molecule `N[C@H]1CC[C@H](CN2CCC(c3cn(CC4CCCCC4)c4ccccc34)CC2)CC1` [Compound 217, (1R,4R)-4-((4-(1-(cyclohexylmethyl)-1H-indol-3-yl)piperidin-1-yl)methyl)cyclohexan-1-amine hydrochloride salt], the MIC was 31 µg/mL in test [1] and 8 µg/mL in test [3]. This molecule gave an IC50 in test [2] of 133 µM.

With `Cl.N[C@H]1CC[C@H](NCCC(c2cn(CC3CCCCC3)c3ccccc23)C2CCCCC2)CC1` (stereo partly drawn) [Compound 204, (1rR4R)-N1-(3-cyclohexyl-3-(1-(cyclohexylmethyl)-1H-indol-3-yl)propyl) cyclohexane-1,4-diamine hydrochloride salt], the results for the MIC in test [1] and in test [3] were 4 µg/mL and 2 µg/mL, respectively. In addition, in test [2], the IC50 amounted to 50 µM.

Consider `Cl.N[C@H]1CC[C@H](NC(=O)CCc2nn(CC3CCCCC3)c3ccc(Br)cc23)CC1` [Compound 270, N-((1r,4r)-4-aminocyclohexyl)-3-(5-bromo-1-(cyclohexylmethyl)-1H-indazol-3-yl)propanamide hydrochloride salt], for which the MIC in test [1] is 127 µg/mL; in test [3] it was 64 µg/mL. This molecule registered an IC50 in test [2] of 135 µM.

Take `Cc1cccc(C(CC(=O)N[C@H]2CC[C@H](N)CC2)c2cn(CCC3CCCCC3)c3ccccc23)c1.Cl` (stereo partly drawn) [Compound 113, N-((1R,4R)-4-aminocyclohexyl)-3-(1-(2-cyclohexylethyl)-1H-indol-3-yl)-3-(m-tolyl)propanamide hydrochloride salt]: the MIC in test [1] turned out to be 512 µg/mL; in test [3] it was 32 µg/mL. This molecule also displayed an IC50 in test [2] of 14 µM.

Turning to `Cl.N[C@H]1CC[C@H](NC(=O)Cc2cn(CC3CCCCC3)c3ccc(Br)cc23)CC1` [Compound 190, N-((1R,4R)-4-aminocyclohexyl)-2-(5-bromo-1-(cyclohexylmethyl)-1H-indol-3-yl)acetamide hydrochloride salt], the MIC worked out at 31 µg/mL in test [1] and 15 µg/mL in test [3]. For the same molecule, the IC50 in test [2] amounted to 10 µM.

Take `N[C@H]1CC[C@H](NC2CCC(c3cn(CC4CCCCC4)c4ccc(Br)cc34)CC2)CC1` (single isomer, unassigned) [Compound 265, (1r,4r)-N1-(4-(5-bromo-1-(cyclohexylmethyl)-1H-indol-3-yl)cyclohexyl)cyclohexane-1,4-diamine hydrochloride salt]: the MIC in test [1] and in test [3] was 2 µg/mL throughout. Moreover, the IC50 in test [2] (hydrochloride salt) was 15 µM.

With `Cc1ccccc1C(CC(=O)NC1CCC(N)CC1)c1cn(CC2CCCCC2)c2ccccc12.Cl` [Compound 149, N-((1S,4S)-4-aminocyclohexyl)-3-(1-(cyclohexylmethyl)-1H-indol-3-yl)-3-(o-tolyl)propanamide hydrochloride salt], the figures for the MIC in test [1] and in test [3] were above 512 µg/mL and 16 µg/mL, respectively. In test [2], inhibition was half-maximal at 13 µM (IC50).

As for `Cc1cccc(-c2ccc3c(c2)c(CC(=O)N[C@H]2CC[C@H](N)CC2)cn3CC2CCCCC2)c1.Cl` [Compound 209, N-((1R,4R)-4-aminocyclohexyl)-2-(1-(cyclohexylmethyl)-5-(m-tolyl)-1H-indol-3-yl)acetamide hydrochloride salt], the MIC was 63 µg/mL in test [1] and 4 µg/mL in test [3]. The molecule also displayed an IC50 in test [2] of 5.4 µM.

Consider `Cc1cccc(C(CC(=O)NC2CCC(C(=O)NO)CC2)c2cn(CC3CCCCC3)c3ccccc23)c1` [Compound 247, (1S,4S)-4-(3-(1-(cyclohexylmethyl)-1H-indol-3-yl)-3-(m-tolyl)propanamido)-N-hydroxycyclohexane-1-carboxamide hydrochloride salt], for which the MIC in test [1] and in test [3] was above 512 µg/mL in each case. The “RNase P Inhibition IC50” value in test [2] was “Ni”.

Regarding `CCOP(=O)(NC1CCC(NC(=O)CC(c2cccc(C)c2)c2cn(CC3CCCCC3)c3ccccc23)CC1)OCC` (stereo not drawn) [Compound 226, diethyl ((1s,4s)-4-(3-(1-(cyclohexylmethyl)-1H-indol-3-yl)-3-(m-tolyl)propanamido)cyclohexyl) phosphoramidate], the MIC is above 512 µg/mL in test [1] and 311 µg/mL (≈ 512 µM) in test [3]. Further, the IC50 in test [2] came out at 28.5 µM.

Consider `NC1CCC(NCCCc2cn(CC3CCCCC3)c3ccc(-c4cccc(OC(F)(F)F)c4)cc23)CC1` [Compound 242, (1S,4S)-N1-(3-(1-(cyclohexylmethyl)-5-(3-(trifluoromethoxy)phenyl)-1H-indol-3-yl)propyl)cyclohexane-1,4-diamine hydrochloride salt], for which the MIC in test [1] came to 5 µg/mL; in test [3] it was 2 µg/mL. Further, half-maximal inhibition in test [2] (IC50) was put at 6.6 µM.

Turning to `FC1(F)CCC(Cn2cc(CCNC3CCNCC3)c3cc(Br)ccc32)CC1` [Compound 290, N-(2-(5-bromo-1-((4,4-difluorocyclohexyl)methyl)-1H-indol-3-yl)ethyl)piperidin-4-amine hydrochloride salt], the MIC in test [1] and in test [3] was 17 µg/mL throughout. Besides, the IC50 in test [2] stood at 61 µM.

For the molecule `COc1cccc(C(CC(=O)N[C@H]2CC[C@@H](N)CC2)c2cn(Cc3ccccc3)c3ccccc23)c1.Cl` (stereo partly drawn) [Compound 66, N-((1S,4S)-4-aminocyclohexyl)-3-(1-benzyl-1H-indol-3-yl)-3-(3-methoxyphenyl) propanamide hydrochloride salt], the MIC is 133 µg/mL in test [1] and 33 µg/mL in test [3]. The IC50 in test [2] was 195 µM.

With `Cc1cccc(C(CC(=O)NCCC2CCNCC2)c2cn(Cc3ccccc3)c3ncccc23)c1.Cl` (stereo not drawn) [Compound 39, 3-(1-benzyl-1H-pyrrolo[2,3-b]pyridin-3-yl)-N-(2-(piperidin-4-yl)ethyl)-3-(m-tolyl)propanamide hydrochloride salt], the figures for the MIC in test [1] and in test [3] were above 512 µg/mL and 265 µg/mL, respectively. In test [2], this molecule returned a 50% inhibitory concentration (IC50) of 959 µM.

As to `Cc1cccc(C(CC(=O)NCC2CCNCC2)c2cn(Cc3ccccc3)c3ncccc23)c1.Cl` (stereo not drawn) [Compound 69, 3-(1-benzyl-1H-pyrrolo[2,3-b]pyridin-3-yl)-N-(piperidin-4-ylmethyl)-3-(m-tolyl)propanamide hydrochloride salt], the MIC in test [1] and in test [3] was above 512 µg/mL in each case. For the same molecule, in test [2], the IC50 is 825 µM.

For `Cc1cccc(C(CC(=O)N[C@H]2CC[C@H](N)CC2)c2cn(CC3CCCCC3)c3ccc(Br)cc23)c1.Cl` (stereo partly drawn) [Compound 126, N-((1R,4R)-4-aminocyclohexyl)-3-(5-bromo-1-(cyclohexylmethyl)-1H-indol-3-yl)-3-(m-tolyl)propanamide hydrochloride salt], the MIC is above 512 µg/mL in test [1] and 4 µg/mL in test [3]. Also, half-maximal inhibition in test [2] (IC50) required 5.8 µM.

With `Cc1cccc(C(CC(=O)NCCC2CCNCC2)c2cn(CCC3CCCCC3)c3ccccc23)c1.Cl` (stereo not drawn) [Compound 110, 3-(1-(2-cyclohexylethyl)-1H-indol-3-yl)-N-(2-(piperidin-4-yl)ethyl)-3-(m-tolyl)propanamide hydrochloride salt], the figures for the MIC in test [1] and in test [3] were 64 µg/mL and 4 µg/mL, respectively. In addition, in test [2], the IC50 came out at 5.6 µM.

On to `Cl.N[C@H]1CC[C@H](NC(=O)CC(c2cccnc2)c2cn(Cc3ccccc3)c3ccccc23)CC1` (stereo partly drawn) [Compound 99, N-((1R,4R)-4-aminocyclohexyl)-3-(1-benzyl-1H-indol-3-yl)-3-(pyridin-3-yl)propanamide hydrochloride salt], for which the figures for the minimal inhibitory concentration (MIC) in test [1] and in test [3] were above 512 µg/mL and 256 µg/mL, respectively. This molecule gave an IC50 in test [2] of 18 µM.

With `Cc1cccc(C(CC(=O)NC2CCC(N)CC2)c2cn(CC3CCCCC3)c3cc(Br)ccc23)c1` [Compound 222, N-((1S,4S)-4-aminocyclohexyl)-3-(6-bromo-1-(cyclohexylmethyl)-1H-indol-3-yl)-3-(m-tolyl)propanamide hydrochloride salt], the MIC in test [1] and in test [3] was 5 µg/mL in each case. In addition, the IC50 in test [2] (hydrochloride salt) came to 5.7 µM.

Take `Cc1cccc(C(CC(=O)NC2CCC(N)CC2)c2cn(CC3CCCCC3)c3cc(Br)ccc23)c1.Cl` [Compound 175, N-((1S,4S)-4-aminocyclohexyl)-3-(6-bromo-1-(cyclohexylmethyl)-1H-indol-3-yl)-3-(m-tolyl)propanamide hydrochloride salt]: the results for the MIC in test [1] and in test [3] were above 512 µg/mL and 2 µg/mL, respectively. Besides, the IC50 in test [2] (hydrochloride salt) stood at 59 µM.

On to `Cl.O=C(CCc1cn(CC2CCC(F)(F)CC2)c2ccc(Br)cc12)NC1CCNCC1` [Compound 286, 3-(5-bromo-1-((4,4-difluorocyclohexyl)methyl)-1H-indol-3-yl)-N-(piperidin-4-yl)propanamide hydrochloride salt], for which the MIC in test [1] stood at 133 µg/mL; in test [3], 66 µg/mL. In test [2], this molecule gave an IC50 of 164 µM.
